# From US9114067B2, “Local administration of gallium compositions to treat pain” (priority 2006, dated 2015)
# Like-named read-outs stand apart in the source and are kept apart here.
# Assays:
# postherpetic neuralgia [1] = assay: Case report: gallium maltolate cream to treat postherpetic neuralgia (person); assay type: in vivo, human; details: tried over about three years before gallium treatment
# Experimental: A person had been experiencing postherpetic neuralgia with erythema on the left side of their face for approximately three years. The pain was so severe that it interfered with sleep and other daily activities. During that period they had tried numerous systemic analgesics to relieve the pain, including amitriptyline 25 mg BID, methadone 5 mg BID, carbamazepine 100 mg BID, gabapentin 200 mg QD, oxycodone 20 mg BID, naproxen, acetaminophen, and intravenous hydrogen peroxide. […] They then began treatment using the topical gallium maltolate formulation of Example 1, above. This formulation was applied three times per day to the affected area, at about 8 AM, 1 PM, and 9 PM, every day for four weeks. The formulation was administered by dipping a fingertip lightly into the formulation, and then smearing the formulation from the fingertip onto the affected area.
# [2] = test system: peripheral neuropathic pain; details: cited from earlier work
# vaginal inflammation = assay: Case report: gallium maltolate cream to treat pain and itching associated with vaginal inflammation (person); assay type: in vivo, human; details: for effect of earlier topical treatment on vaginal inflammation symptoms: same patient before gallium treatment
# [3] = test system: painful diabetic neuropathy; details: Wiffen et al. 2005; cited from earlier work
# postherpetic neuralgia [4] = details: cited from earlier work
# [5] = test system: non-malignant neuropathic pain; details: cited from earlier work
# [6] = meta-analysis, Eisenberg et al. 2005
smiles,measurement,setting,value
CC(=O)Nc1ccc(O)cc1 [acetaminophen],pain relief from earlier treatments tried by the same patient,postherpetic neuralgia [1],None of these treatments produced significant pain relief
CN(C)CCC=C1c2ccccc2CCc2ccccc21 [amitriptyline],NNT (number needed to treat) for moderate pain relief,[2]; Saarto and Wiffen 2005,2
same,share of those treated with at least moderate pain relief,[2]; explanation of NNT 2,50%
same,pain relief from earlier treatments tried by the same patient,postherpetic neuralgia [1],None of these treatments produced significant pain relief
CCOC(=O)c1ccc(N)cc1 [benzocaine],effect of earlier topical treatment on vaginal inflammation symptoms,vaginal inflammation,little effect
NC(=O)N1c2ccccc2C=Cc2ccccc21 [carbamazepine],pain relief from earlier treatments tried by the same patient,postherpetic neuralgia [1],None of these treatments produced significant pain relief
same,NNT for moderate pain relief,[3],2.3
NCC1(CC(=O)O)CCCCC1 [gabapentin],pain relief from earlier treatments tried by the same patient,postherpetic neuralgia [1],None of these treatments produced significant pain relief
same,NNT for moderate pain relief,"postherpetic neuralgia [4]; postherpetic neuralgia, Wiffen et al. 2005",3.2
same,NNT for moderate pain relief,[3],3.8
OO [hydrogen peroxide],pain relief from earlier treatments tried by the same patient,postherpetic neuralgia [1],None of these treatments produced significant pain relief
CN1CC[C@]23CCCC[C@H]2[C@H]1Cc1ccc(O)cc13 [levorphanol],subjects who dropped out of the study due to drug side effects,postherpetic neuralgia [4]; Rowbotham et al. 2003,31%
same,average reduction in pain,"postherpetic neuralgia [4]; high dose, Rowbotham et al. 2003",33%
same,average reduction in pain,"postherpetic neuralgia [4]; low dose, Rowbotham et al. 2003",14%
same,efficacy in intermediate-term (8-56 day) studies,[5]; [6],marginal efficacy
same,efficacy in short-term (24 hour) studies,[5]; [6],marginal to no efficacy
CCC(=O)C(CC(C)N(C)C)(c1ccccc1)c1ccccc1 (stereo not shown) [methadone],pain relief from earlier treatments tried by the same patient,postherpetic neuralgia [1],None of these treatments produced significant pain relief
same,efficacy in intermediate-term (8-56 day) studies,[5]; [6],marginal efficacy
same,efficacy in short-term (24 hour) studies,[5]; [6],marginal to no efficacy
Clc1ccc(COC(Cn2ccnc2)c2ccc(Cl)cc2Cl)c(Cl)c1 (stereo not shown) [miconazole],local tolerability of earlier topical treatment,vaginal inflammation; same patient,irritating
same,effect of earlier topical treatment on vaginal inflammation symptoms,vaginal inflammation,ineffective
CN1CC[C@]23c4c5ccc(O)c4O[C@H]2[C@@H](O)C=C[C@H]3[C@H]1C5 [morphine],efficacy in intermediate-term (8-56 day) studies,[5]; in vivo,marginal efficacy
same,efficacy in short-term (24 hour) studies,[5]; in vivo,marginal to no efficacy
COc1ccc2cc([C@H](C)C(=O)O)ccc2c1 [naproxen],pain relief from earlier treatments tried by the same patient,postherpetic neuralgia [1],None of these treatments produced significant pain relief
COc1ccc2c3c1O[C@H]1C(=O)CC[C@@]4(O)[C@@H](C2)N(C)CC[C@]314 [oxycodone],pain relief from earlier treatments tried by the same patient,postherpetic neuralgia [1],None of these treatments produced significant pain relief
same,efficacy in intermediate-term (8-56 day) studies,[5]; [6],marginal efficacy
same,efficacy in short-term (24 hour) studies,[5]; [6],marginal to no efficacy
O=C1NC(=O)C(c2ccccc2)(c2ccccc2)N1 [phenytoin],NNT for moderate pain relief,[3],2.1
